Measurements published in patent publication US11466027B2, “Modulators of the NMDA receptor” (H. Lundbeck A/S, priority 2019, dated 2022).
Where two headings read alike, the source gives them in different places.

What was measured:
[1] = In vivo exposure (brain disposition) after intravenous bolus injection; set-up: species or system male Sprague Dawley rats; conditions: male, Sprague-Dawley, rat, 2 mg/kg intravenous bolus, 30 min post dose
Procedure: Brain disposition of test compound was evaluated in male Sprague Dawley rats (standard body weight range). Briefly, discrete (nominal dose: 2 mg/kg, 2 ml/kg) or cassetted (nominal dose: 1 mg/kg/compound, 2 ml/kg) test compounds were administered by intravenous bolus injection (formulated in 10% hydroxypropyl-β-cyclodextrin or 10-20% Captisol, pH=3).
Serial blood samples were collected from a lateral tail vein at designated time points (n=3 per time point) then rats were put under deep isoflurane induced anesthesia prior to removal of brains (n=3 per time point). Blood was collected into K3-EDTA-coated tubes and the samples were gently turned upside-down to ensure a homogenous sample. The tubes were centrifuged at 3300×g for 10 min. at max 4° C. and plasma samples were transferred to Micronic tubes. […]
Seven calibration standards and three QC samples were prepared in plasma and brain homogenate, respectively, in the concentration range 10-10000 ng/mL. […] Study samples with expected concentration above upper limit of quantification were diluted with blank matrix. […]
Samples were analyzed using an AB Sciex API4000 triple quadrupole (TQ) mass spectrometer operated in positive and negative electrospray ionization and MS/MS mode (multiple reaction monitoring, MRM). […] Quantification was performed by linear regression, 1/x2 weighting.

[2] = test system: High Frequency Oscillations (HFO) in the nucleus accumbens; test: Resting state electroencephalography (rsEEG) in rats; type: in vivo; conditions: rat, 20 mg/kg, vs 10% captisol, FIG. 1
Procedure: On the day of surgery, rats (270-300 g) were anesthetized with a 0.25 ml/100 g subcutaneous (SC) injection of 1:1 hypnorm/Dormicum and mounted in a stereotaxic frame (David Kopf Instruments, Tujunga, Calif., USA) with blunt ear bars. Marcain (0.2 ml SC) was injected under the scalp, and gel (Neutral Opthta Eye Gel) put on the eyes to prevent the mucous membrane drying out. Holes were burred in the skull to allow for placement of three depth electrodes (E363-series; PlasticsOne, Roanoke, Va., USA) in medial prefrontal cortex (mPFC) (AP: 3.0 mm from the bregma suture, ML: −0.7 mm from the sagittal suture and DV: 3.0 mm from the dura), Nucleus accumbens (NAc): (AP+1.6 mm from the bregma suture, ML: −1.0 mm from the sagittal suture, DV: −6.7 mm from the dura) and thalamus (AP: −2.8 mm from the bregma suture, ML: +0.7 mm from the sagittal suture and DV: 4.4 mm from the dura) and three screw electrodes above the auditory cortex (A1) (AP: −4.8 mm from the bregma suture, ML: +6.4 mm from the sagittal suture), a reference electrode (AP: +8.0 mm and ML: −2.0 mm), and a ground electrode (AP: −5 mm, ML: +5 mm). […] Animal bodyweights were recorded daily. […]
Rats were handled daily and habituated to recording box the week before recording sessions. […] The analysis of the locomotor behaviour was based on the recorded accelerometer signal. […]

[3] = Microdialysis studies in rats (ventral hippocampus); type: in vivo, Male Sprague-Dawley rats; conditions: 30 mg/kg subcutaneously, FIG. 2
Procedure: Male Sprague-Dawley rats, initially weighing 275-300 g, were used. The animals were housed under a 12-hr light/dark cycle under controlled conditions for regular in-door temperature (21±2° C.) and humidity (55±5%) with food and tap water available ad libitum.
Rats were anaesthetised with hypnorm/dormicum (2 ml/kg) and intracerebral guide cannulas.
(CMA/12) were stereotaxically implanted into the brain, aiming to position the dialysis probe tip in the ventral hippocampus (co-ordinates: 5.6 mm posterior to bregma, lateral −4.8 mm, 7.0 mm ventral to dura. Anchor screws and acrylic cement were used for fixation of the guide cannulas. The body temperature of the animals was monitored by rectal probe and maintained at 37° C. The rats were allowed to recover from surgery for 2 days, housed singly in cages.
On the day of the experiment a microdialysis probe (CMA/12, 0.5 mm diameter, 3 mm length) was inserted through the guide cannula. The probe was connected via a dual channel swivel to a microinjection pump. Perfusion of the microdialysis probe with filtered Ringer solution (145 mm NaCl, 3 mM KCl, 1 mM MgCl2, 1.2 mM CaCl2) was begun shortly before insertion of the probe into the brain and continued for the duration of the experiment at a constant flow rate of 1 μl/min. After 180 min of stabilisation, the experiments were initiated. […]

[4] = molecular target: NR1s1s2 (ligand binding domains of the NMDA receptor), glycine site (Rattus norvegicus, UniProt P35439); test: Scintillation Proximity Assay (SPA), displacement of [3H]-MDL-105,519; conditions: radioligand used in SPA
Description: Scintillation Proximity Assay (SPA):
Normalized data are used to calculate Ki values.

| Structure (SMILES) | concentration at 30 min ([1]; brain, read-out: Total Brain concentration (ng/mL) 30 min post dose) | concentration at 30 min ([1]; plasma, read-out: Total Plasma concentration (ng/mL) 30 min post dose) | Effect in rsEEG (High Frequency Oscillations in the nucleus accumbens) compared to vehicle [2] | Extracellular levels in the rat ventral hippocampus after systemic administration [3] | Kd [4] |
| --- | --- | --- | --- | --- | --- |
| Cc1ccnc2cc(C(=O)NC[C@@H](N)C(=O)O)sc12 [Compound 1e, (R)-2-amino-3-[(7-methylthieno[3,2-b]pyridine-2-carbonyl)amino]propanoic acid] | 8.4 ng/mL | 270 ng/mL | clear effect | considerable extracellular levels |  |
| O=C(O)C(=Cc1c(C(=O)O)[nH]c2cc(Cl)cc(Cl)c12)c1ccccc1 [[^3H]-MDL-105,519] |  |  |  |  | 1.3 nM |
